Data set [1] can be described thus: Aqueous kinetic solubility of the compound in PBS buffer at pH 7.4. The data set is classed as physicochemical. As to conditions: read-out: Kinetic_solubility.
A short description of data set [2]: Apparent permeability of the compound from apical to basolateral side of MDCK cells. Particulars: dog. Type of data set: ADME, cell-based, Canis lupus familiaris.

In brackets after ≈: the same amount, converted by molar mass.

The term Papp A→B denotes how fast a substance crosses the layer from the apical side.

With `O=c1[nH]ccc2c(NC3CCCCC3)ncnc12`, the solubility kinetic in data set [1] was determined as 225 µM (≈ 55 µg/mL). For `O=c1[nH]ccc2c(NC3CCCC3)ncnc12`, the solubility kinetic in data set [1] worked out at 318 µM (≈ 73.2 µg/mL). Also, in data set [2], the Papp A→B is 2.5 ×10⁻⁶ cm/s. As to `CNc1nc(N[C@@H]2CCC[C@@H]2C#N)c2cc[nH]c(=O)c2n1` (racemic), the solubility kinetic in data set [1] came to 74 µM (≈ 21 µg/mL). Same read-out and setting: for `N#C[C@H]1CCC[C@H]1Nc1nc(N2CCCCC2)nc2c(=O)[nH]ccc12` (racemic) the value was 8.6 µM (≈ 2.91 µg/mL); for `N#C[C@H]1CCC[C@H]1Nc1nc(N2CCOCC2)nc2c(=O)[nH]ccc12` (racemic), 51 µM (≈ 17.4 µg/mL). On to `CN(CCO)c1nc(N[C@@H]2CCC[C@@H]2C#N)c2cc[nH]c(=O)c2n1` (racemic), for which the solubility kinetic in data set [1] amounted to 19 µM (≈ 6.24 µg/mL). The same measure, in the same setting: for `N#C[C@H]1CCC[C@H]1Nc1nc(-c2ccccc2)nc2c(=O)[nH]ccc12` (racemic) the value was 11 µM (≈ 3.65 µg/mL). Regarding `N#C[C@H]1CCC[C@H]1Nc1nc(-c2cn[nH]c2)nc2c(=O)[nH]ccc12` (racemic), in data set [1], the solubility kinetic was 24 µM (≈ 7.71 µg/mL). The Papp A→B in data set [2] is 0.2 ×10⁻⁶ cm/s. The like results for `CCc1nc(N[C@@H]2CCC[C@@H]2C#N)c2cc[nH]c(=O)c2n1` (racemic) were, in that order, 140 µM (≈ 39.7 µg/mL) and 0.6 ×10⁻⁶ cm/s.

For `N#C[C@H]1CCC[C@H]1Nc1ncnc2c(=O)[nH]ccc12` (racemic), the solubility kinetic in data set [1] amounted to 104 µM (≈ 26.5 µg/mL). Still for that read-out and setting: for `N#CC1CCCC1Nc1ncnc2c(=O)[nH]ccc12` (single isomer, unassigned; enantiomer 1) the value was 119 µM (≈ 30.4 µg/mL).

The values above are taken from ChEMBL document CHEMBL2434881, “Design and evaluation of novel 8-oxo-pyridopyrimidine Jak1/2 inhibitors” (Bioorg Med Chem Lett, 2013).
